The values below come from patent US7732434B2, “Macrocyclic acyl guanidines as beta-secretase inhibitors” (Bristol-Myers Squibb Company, priority 2007, dated 2010).

One series concerns the target T1, BACE1 enzyme (Homo sapiens, UniProt P56817).
T1 construct: The HEK293-9B.A1 cell line, which overexpresses the BACE1 enzyme, was derived from HEK293 cells; endogenous in cells; washed 48,000 x g pellet of cell homogenate
Description: Radioligand displacement assay with a radiolabeled BACE inhibitor, HEK293-9B.A1 cell homogenate. The format is binding. Particulars: displacement of 1 nM radioligand, HEK293-9B.A1 homogenate, pH 5.0, 1.5 hr at 25° C.; read-out: Activity Rating (activity based on IC50 values). Here is the method: Radioligand displacement assays with a radiolabeled BACE inhibitor (WO 2004 013098, compound 3, where the methoxy group is substituted for C(^3H)3) were carried out using standard methods (Keen, M. (1999) in Receptor Binding Techniques (Walker, J. M. ed) p. 106Humana Press, Totowa, N.J.). The HEK293-9B.A1 cell line, which overexpresses the BACE1 enzyme, was derived from HEK293 cells (Simmons, N. L. (1990) A cultured human renal epithelioid cell line responsive to vasoactive intestinal peptide. Exp. Physiol. 75:309-19.) by RAGE™ (Harrington, J. J. et al. (2001) Creation of genome-wide protein expression libraries using random activation of gene expression. Nat. Biotechnol. 19:440-5.; U.S. Pat. Nos. 6,410,266 and 6,361,972). T225 flask cultures of HEK293-9B.A1 were grown to 80% confluency in DMEM supplemented with 2 mM L-glutamine, 10 μg/ml penicillin, 10 μg/ml streptomycin, 3 μg/ml puromycin, 100 nM methotrexate, and 10% fetal bovine serum (Invitrogen, Carlsbad, Calif.), harvested, and resuspended at 2×10^8 cells per 10 ml of lysis buffer consisting of 50 mM HEPES pH 7.0 containing a protease inhibitor cocktail of AEBSF 104 μM, aprotinin 80 nM, leupeptin 2 μM, bestatin 4 μM, pepstatin A 1.5 μM, and E-64 1.4 μM (0.1% of protease inhibitor cocktail P8340, Sigma-Aldrich, St. Louis, Mo.) at 4° C. The resuspended cells were homogenized using a Polytron (Brinkman, Westbury, N.Y.) at setting 6 for 10 sec., then centrifuged at 48,000×g for 10 min. The resulting pellet was washed by repeating the resuspension, homogenization and centrifugation steps. The final pellet was resuspended in buffer at 4° C. to yield a total protein concentration of 5 mg/ml, then aliquots were frozen in liquid nitrogen for further storage at −70° C. Immediately before carrying out a binding assay, an aliquot of cell homogenate was thawed and diluted to a concentration of 100 μg/ml in assay buffer consisting of 50 mM HEPES pH 5.0 and 0.1% CHAPSO. Assays were initiated in polypropylene 96-well plates (Costar, Cambridge, Mass.) by the addition of 200 μl of cell homogenate to 50 μl of assay buffer containing 1 nM radioligand (WO 2004 013098, compound 3, where the methoxy group is substituted for C(^3H)3: 80 Ci/mMol) and various concentrations of unlabelled compounds, and incubated for 1.5 hr. at 25° C. Separation of bound from free radioligand was by filtration on GFF glass fiber filters (Innotech Biosystems International, Lansing, Mich.) using an Innotech cell harvester. Filters were washed three times with 0.3 ml of phosphate buffered saline pH 7.0 at 4° C. and assessed for radioactivity using a Wallac 1450 Microbeta liquid scintillation counter (PerkinElmer, Boston, Mass.). Ki values of competing compounds were derived through Cheng-Prussoff correction of IC50 values calculated using XLfit (IDBS, Guildford, UK).
A general note: In a radioligand displacement assay an active substance lowers the binding of a labelled ligand.

For series [1] the following is noted: rcm bond, 1,2-dichloroethane.

One may read the IC50 as the point on the concentration scale where inhibition reaches its midpoint.

Read-outs that look alike come from different tables or passages of the source. A value given as a limit tells only on which side of the number the result lay.

T1 sequence (P56817 46-501): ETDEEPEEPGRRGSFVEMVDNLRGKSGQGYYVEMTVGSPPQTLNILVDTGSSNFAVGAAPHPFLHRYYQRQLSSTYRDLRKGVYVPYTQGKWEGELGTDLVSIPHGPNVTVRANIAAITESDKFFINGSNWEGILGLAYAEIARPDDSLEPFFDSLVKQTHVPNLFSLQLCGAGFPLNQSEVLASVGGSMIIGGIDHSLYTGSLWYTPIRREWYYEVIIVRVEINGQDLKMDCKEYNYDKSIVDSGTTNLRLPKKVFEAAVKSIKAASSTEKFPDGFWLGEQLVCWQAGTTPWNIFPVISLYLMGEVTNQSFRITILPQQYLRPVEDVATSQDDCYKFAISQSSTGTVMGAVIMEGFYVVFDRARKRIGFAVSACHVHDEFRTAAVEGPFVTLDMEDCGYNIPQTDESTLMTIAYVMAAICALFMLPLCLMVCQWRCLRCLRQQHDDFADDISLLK

For the molecule `Cc1onc2c1C(=O)N=C(N)NCc1ccc(c(Cl)c1)NC(=O)CNCCC/C=C\COc1ccc-2cc1` [Example 11, (23Z)-9-Amino-14-chloro-5-methyl-4,26-dioxa-3,8,10,16,19-pentaazatetracyclo-[25.2.2.2^12,5.0^2,6]tritriaconta-1(29),2,5,8,12,14,23,27,30,32-decaene-7,17-dione], on BACE1 enzyme, the IC50 is under 5 nM.

`Cc1snc2c1C(=O)/N=C(\N)NCc1cc(Cl)c(c(Cl)c1)NC(=O)CNCC/C=C\COc1ccc-2cc1` [Example 8, (22Z)-9-Amino-14,31-dichloro-5-methyl-25-oxa-4-thia-3,8,10,16,19-pentaazatetracyclo[24.2.2.2^12,15.0^2,6]dotriaconta-1(28),2,5,8,12,14,22,26,29,31-decaene-7,17-dione]: the IC50 on BACE1 enzyme was under 5 nM. Same read-out and setting: next, `Cc1snc2c1C(=O)/N=C(\N)NCc1cc(Cl)c(c(Cl)c1)NC(=O)CN(Cc1ccccc1)CCCC=CCOc1ccc-2cc1` [Example 6, 9-Amino-19-benzyl-14,32-dichloro-5-methyl-26-oxa-4-thia-3,8,10,16,19-pentaazatetracyclo[25.2.2.2^12,15.0^2,6]tritriaconta-1(29),2,5,8,12,14,23,27,30,32-decaene-7,17-dione]: 5 to 50 nM; `Cc1onc2c1C(=O)/N=C(\N)NCc1ccc(cc1)NC(=O)CNCCC/C=C\COc1ccc-2cc1` [Example 10, (23Z)-9-Amino-5-methyl-4,26-dioxa-3,8,10,16,19-pentaazatetracyclo-[25.2.2.2^12,15.0^2,6]tritriaconta-1(29),2,5,8,12,14,23,27,30,32-decaene-7,17-dione]: under 5 nM; `Cc1onc2c1C(=O)/N=C(\N)NCc1cc(Cl)c(c(Cl)c1)NC(=O)CNCCCC/C=C\COc1ccc-2cc1` [Example 7, (24Z)-9-Amino-14,33-dichloro-5-methyl-4,27-dioxa-3,8,10,16,19-pentaazatetracyclo[26.2.2.2^12,15.0^2,6]tetratriaconta-1(30),2,5,8,12,14,24,28,31,33-decaene-7,17-dione]: under 5 nM. `Cc1onc2c1C(=O)N=C(NC(=O)OC(C)(C)C)NCc1cc(Cl)c(c(Cl)c1)NC(=O)CN(C(=O)OC(C)(C)C)CCCCC=CCOc1ccc-2cc1` (mixture of isomers) came in with a ring closure, yield of all isomers in series [1] (from C=CCCCCN(CC(=O)Nc1c(Cl)cc(CN/C(=N/C(=O)c2c(-c3ccc(OCC=C)cc3)noc2C)NC(=O)OC(C)(C)C)cc1Cl)C(=O)OC(C)(C)C, Grubbs Catalyst 2nd Generation, 3.71 mM, 45.0 °C, 2.0 h) of 64.9%. On to `Cc1onc2c1C(=O)N=C(NC(=O)OC(C)(C)C)NCc1cc(Cl)c(c(Cl)c1)NC(=O)CN(C(=O)OC(C)(C)C)CCCC=CCOc1ccc-2cc1`, for which, in series [1] (from C=CCCCN(CC(=O)Nc1c(Cl)cc(CN/C(=N/C(=O)c2c(-c3ccc(OCC=C)cc3)noc2C)NC(=O)OC(C)(C)C)cc1Cl)C(=O)OC(C)(C)C, Grubbs Catalyst 2nd Generation, 3.94 mM, 40.0 °C, 2.0 h), the ring closure, yield of all isomers turned out to be 69.9%. In turn, `Cc1snc2c1C(=O)N=C(NC(=O)OC(C)(C)C)NCc1cc(Cl)c(c(Cl)c1)NC(=O)CN(C(=O)OC(C)(C)C)CCCC=CCOc1ccc-2cc1` displayed a ring closure, yield of all isomers in series [1] (from C=CCCCN(CC(=O)Nc1c(Cl)cc(CN/C(=N/C(=O)c2c(-c3ccc(OCC=C)cc3)nsc2C)NC(=O)OC(C)(C)C)cc1Cl)C(=O)OC(C)(C)C, Grubbs Catalyst 1st Generation, 3.04 mM, 70.0 °C, 6.0 h) of 68%. The molecule `Cc1onc2c1C(=O)N=C(NC(=O)OC(C)(C)C)NCc1cc(Cl)c(c(Cl)c1)NC(=O)CN(C(=O)OC(C)(C)C)CC=CCOc1ccc-2cc1` registered a ring closure, yield of all isomers in series [1] (from C=CCOc1ccc(-c2noc(C)c2C(=O)/N=C(/NCc2cc(Cl)c(NC(=O)CN(CC=C)C(=O)OC(C)(C)C)c(Cl)c2)NC(=O)OC(C)(C)C)cc1, Grubbs Catalyst 2nd Generation, 5.84 mM, 45.0 °C, 2.0 h) of 53%.

With `Cc1snc2c1C(=O)/N=C(\N)NCc1cc(Cl)c(c(Cl)c1)NC(=O)CNCCCC=CCOc1ccc-2cc1` [Example 4, 9-Amino-14,32-dichloro-5-methyl-26-oxa-4-thia-3,8,10,16,19-pentaazatetracyclo[25.2.2.2^12,15.0^2,6]tritriaconta-1(29),2,5,8,12,14,23,27,30,32-decaene-7,17-dione], the IC50 on BACE1 enzyme lay within 5 to 50 nM. Same read-out and setting: to `Cc1onc2c1C(=O)/N=C(\N)NCc1cc(Cl)c(c(Cl)c1)NC(=O)CNCCC/C=C\COc1ccc-2cc1` [Example 3, 9-Amino-14,32-dichloro-5-methyl-4,26-dioxa-3,8,10,16,19-pentaazatetracyclo-[25.2.2.2^12,15.0^2,6]tritriaconta-1(29),2,5,8,12,14,23,27,30,32-decaene-7,17-dione] belongs 5 to 50 nM; to `Cc1snc2c1C(=O)/N=C(\N)NCc1cc(Cl)c(c(Cl)c1)NC(=O)CNCCCCCCOc1ccc-2cc1` [Example 5, 9-Amino-14,32-dichloro-5-methyl-26-oxa-4-thia-3,8,10,16,19-pentaazatetracyclo[25.2.2.2^12,15.0^2,6]tritriaconta-1(29),2,5,8,12,14,27,30,32-nonaene-7,17-dione], 5 to 50 nM; to `Cc1onc2c1C(=O)/N=C(\N)NCc1cc(Cl)c(c(Cl)c1)NC(=O)CNCC=CCOc1ccc-2cc1` [Example 1, 9-Amino-14,30-dichloro-5-methyl-4,24-dioxa-3,8,10,16,19-pentaazatetracyclo-[23.2.2.2^12,15.0^2,6]hentriaconta-1(27),2,5,8,12,14,21,25,28,30-decaene-7,17-dione], over 50 nM. On the same count and under the same terms, next, `Cc1snc2c1C(=O)/N=C(\N)NCc1cc(Cl)c(c(Cl)c1)NC(=O)CNCCCCCOc1ccc-2cc1` [Example 9, 9-Amino-14,31-dichloro-5-methyl-25-oxa-4-thia-3,8,10,16,19-pentaazatetracyclo[24.2.2.2^12,15.0^2,6]dotriaconta-1(28),2,5,8,12,14,26,29,31-nonaene-7,17-dione]: under 5 nM; `Cc1onc2c1C(=O)/N=C(\N)NCc1cc(Cl)c(c(Cl)c1)NC(=O)CNCC/C=C/COc1ccc-2cc1` [Example 2, (22E)-9-Amino-14,31-dichloro-5-methyl-4,25-dioxa-3,8,10,16,19-pentaazatetracyclo[24.2.2.2^12,15.0^2,6]dotriaconta-1(28),2,5,8,12,14,22,26,29,31-decaene-7,17-dione]: over 50 nM.
